Patent US9457018B2, “Method for combating adverse effects arising from antipsychotic treatment” (Saniona A/S, priority 2008, dated 2016)

Assay: Olanzapine-induced weight gain in a rat model of antipsychotic drug induced obesity (three weeks study)
Type: in vivo, Female Sprague-Dawley (SPRD) rats
Conditions: tesofensine 2.0 mg/kg s.c. co-treatment with olanzapine 2.0 mg/kg p.o. from day 15, for 7 days, female SPRD rats
Protocol: Female Sprague-Dawley (SPRD) rats were placed on 10% fat kcal futter. The rats were tagged subcutaneously with a microship in the neck and placed in an automatized food intake monitoring system. […] Co-administration of vehicle or tesofensine continued for 7 days in total. Body weight and food intake was measured on a daily basis, and body weight gain and cumulative food intake was calculated. Data were evaluated using a two-way ANOVA with Bonferroni's post-hoc test (daily body weight gain and food intake) or a one-way ANOVA with Tukey's post-hoc test.

Compound: CCOC[C@@H]1[C@@H](c2ccc(Cl)c(Cl)c2)C[C@@H]2CC[C@H]1N2C [tesofensine, (1R,2R,3S,5S)-3-(3,4-dichlorophenyl)-2-(ethoxymethyl)-8-methyl-8-azabicyclo[3.2.1]octane]
- effect on hypophagic response to olanzapine (food intake): completely prevented
- effect on olanzapine-induced body weight gain: completely prevented
- effect on hypophagic response to olanzapine (food intake) (listed as Tesofensine): prevents
- effect on olanzapine-induced body weight gain (listed as Tesofensine): prevents
